Experimental data as given in ChEMBL document CHEMBL4616632, “Discovery of Cyclic Boronic Acid QPX7728, an Ultrabroad-Spectrum Inhibitor of Serine and Metallo-β-lactamases” (J Med Chem, 2020).

Columns and labels:
[1] = biological target: Beta-lactamase (Klebsiella pneumoniae) (UniProt Q93LQ9); assay: Inhibition of Klebsiella pneumoniae KP1004 KPC-2 assessed as minimum concentration of compound needed to reduce the MIC of biapenem to 1 ug/ml
[2] = tested on: Escherichia coli; assay: Inhibition of Escherichia coli EC302 TEM-10 assessed as minimum concentration of compound needed to reduce the MIC of aztreonam to 4 ug/ml
[3] = Inhibition of recombinant Escherichia coli NDM-1 using imipenem as substrate preincubated for 10 mins followed by substrate addition and measured every 30 secs for 30 mins by spectrophotometric analysis
[4] = biological target: Class A carbapenemase KPC-2 (Escherichia coli, UniProt A8DS27); assay: Inhibition of recombinant Escherichia coli KPC-2 using nitrocefin as substrate preincubated for 10 mins followed by substrate addition and measured every 10 secs for 10 mins by spectrophotometric analysis
[5] = tested on: Klebsiella pneumoniae; assay: Inhibition of Klebsiella pneumoniae KP1081 NDM-1 assessed as minimum concentration of compound needed to reduce the MIC of biapenem to 1 ug/ml
[6] = Inhibition of recombinant Escherichia coli OXA-48 using nitrocefin as substrate preincubated for 10 mins followed by substrate addition and measured every 10 secs for 10 mins by spectrophotometric analysis
[7] = tested on: Klebsiella pneumoniae; assay: Inhibition of Klebsiella pneumoniae KP1160 IMP-26 assessed as minimum concentration of compound needed to reduce the MIC of meropenem to 1 ug/ml
[8] = tested on: Klebsiella pneumoniae; assay: Inhibition of Klebsiella pneumoniae KP1081 NDM-1 assessed as minimum concentration of compound required to reduce the MIC of biapenem to 1 ug/ml
[9] = biological target: Beta-lactamase (Klebsiella pneumoniae) (UniProt Q93LQ9); assay: Inhibition of Klebsiella pneumoniae KP1004 KPC-2 assessed as minimum concentration of compound needed to reduce the MIC of aztreonam to 4 ug/ml
[10] = tested on: Enterobacter cloacae; assay: Inhibition of Enterobacter cloacae ECL1002 AmpC assessed as minimum concentration of compound needed to reduce the MIC of aztreonam to 4 ug/ml
[11] = tested on: Escherichia coli; assay: Inhibition of Escherichia coli KP308 SHV-5 assessed as minimum concentration of compound required to reduce the MIC of aztreonam to 4 ug/ml
[12] = tested on: Klebsiella pneumoniae; assay: Inhibition of Klebsiella pneumoniae KP1009 CTX-M-15 assessed as minimum concentration of compound required to reduce the MIC of aztreonam to 4 ug/ml
[13] = tested on: Klebsiella pneumoniae; assay: Inhibition of Klebsiella pneumoniae KP1054 VIM-1 assessed as minimum concentration of compound required to reduce the MIC of biapenem to 1 ug/ml
[14] = tested on: Klebsiella pneumoniae; assay: Inhibition of Klebsiella pneumoniae KP1086 OXA-48 assessed as minimum concentration of compound needed to reduce the MIC of biapenem to 1 ug/ml
[15] = tested on: Pseudomonas aeruginosa; assay: Inhibition of Pseudomonas aeruginosa PAM 1154 KPC-2 assessed as assessed as minimum potentiating concentration of compound needed to reduce the MIC of biapenem by 64 fold
[16] = Ratio of inhibition of Pseudomonas aeruginosa PAM 1032 KPC-2 assessed as minimum potentiating concentration of compound needed to reduce the MIC of biapenem by 64 fold to inhibition of Pseudomonas aeruginosa PAM 1154 KPC-2 assessed as assessed as minimum potentiating concentration of compound needed to reduce the MIC of biapenem by 64 fold
[17] = tested on: Pseudomonas aeruginosa; assay: Inhibition of Pseudomonas aeruginosa PAM 1032 KPC-2 assessed as minimum potentiating concentration of compound needed to reduce the MIC of biapenem by 64 fold
[18] = tested on: Pseudomonas aeruginosa; assay: Inhibition of Pseudomonas aeruginosa PAM 2035 AmpC assessed as minimum concentration of compound needed to reduce the MIC of aztreonam to 4 ug/ml
[19] = tested on: Escherichia coli; assay: Inhibition of Escherichia coli EC308 SHV-5 assessed as minimum concentration of compound needed to reduce the MIC of aztreonam to 4 ug/ml
[20] = Oral bioavailability in rat at 50 to 75 mg/kg by HPLC/MS analysis; format: ADME, organism-based; details: in vivo
[21] = tested on: Acinetobacter baumannii; assay: Inhibition of Acinetobacter baumannii AB1053 OXA-72 assessed as minimum concentration of compound needed to reduce the MIC of meropenem to 8 ug/ml
[22] = tested on: Escherichia coli; assay: Inhibition of Escherichia coli ECM6619 TEM-10 assessed as minimum concentration of compound needed to reduce the MIC of aztreonam to 4 ug/ml
[23] = biological target: Beta-lactamase OXA-23 (Acinetobacter baumannii) (UniProt Q9L4P2); assay: Inhibition of Acinetobacter baumannii AB1054 OXA-23 assessed as minimum concentration of compound needed to reduce the MIC of meropenem to 8 ug/ml
[24] = tested on: Escherichia coli; assay: Inhibition of Escherichia coli ECM6625 SHV-5 assessed as minimum concentration of compound needed to reduce the MIC of aztreonam to 4 ug/ml

Beta-lactamase (Klebsiella pneumoniae), sequence (Q93LQ9 as listed by the source): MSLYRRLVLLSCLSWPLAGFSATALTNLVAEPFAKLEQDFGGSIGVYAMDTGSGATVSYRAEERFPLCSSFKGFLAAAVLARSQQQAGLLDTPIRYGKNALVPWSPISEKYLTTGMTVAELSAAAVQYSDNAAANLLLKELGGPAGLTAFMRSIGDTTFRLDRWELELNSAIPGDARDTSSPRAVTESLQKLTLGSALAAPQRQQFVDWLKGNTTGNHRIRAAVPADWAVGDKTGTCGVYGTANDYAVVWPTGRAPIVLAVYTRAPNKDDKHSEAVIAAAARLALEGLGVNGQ
Beta-lactamase OXA-23 (Acinetobacter baumannii), sequence (Q9L4P2 whole entry): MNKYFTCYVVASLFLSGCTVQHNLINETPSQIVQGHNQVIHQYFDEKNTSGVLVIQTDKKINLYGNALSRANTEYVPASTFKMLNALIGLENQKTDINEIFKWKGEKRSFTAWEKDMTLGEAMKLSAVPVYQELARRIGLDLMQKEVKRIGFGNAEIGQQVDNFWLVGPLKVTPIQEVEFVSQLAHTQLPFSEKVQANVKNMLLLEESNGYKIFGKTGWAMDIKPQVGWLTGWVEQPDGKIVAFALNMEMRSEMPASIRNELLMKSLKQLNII
Class A carbapenemase KPC-2, sequence (A8DS27 whole entry): as the sequence (Q93LQ9 as listed by the source) above

O=C(O)c1cccc2c1OB(O)[C@@H](Sc1nncs1)C2
Activity [1]: 0.16 µg/mL
MEC [2]: 20 µg/mL
Ki [3]: 24 nM
Ki [4]: 150 nM
Activity [5]: 0.6 µg/mL
Ki [6]: 1.4 nM
MEC [7]: 40 µg/mL
MEC [8]: 0.6 µg/mL
MEC [9]: 10 µg/mL
MEC [10]: 20 µg/mL
MEC [11]: 2.5 µg/mL
MEC [12]: > 20 µg/mL
MEC [13]: 2.5 µg/mL
Activity [14]: 5 µg/mL

O=C(Cc1cccs1)N[C@H]1Cc2cccc(C(=O)O)c2OB1O
Activity [15]: 2.5 µg/mL
Ratio [16]: 32
Activity [17]: 80 µg/mL

O=C(Cc1cccs1)N[C@H]1Cc2ccc(F)c(C(=O)O)c2OB1O
Activity [15]: 10 µg/mL
Ratio [16]: 4
Activity [17]: 40 µg/mL

CSCC(=O)N[C@H]1Cc2ccc(SCC(N)=O)c(C(=O)O)c2OB1O
MEC [2]: 1.25 µg/mL
MEC [9]: 2.5 µg/mL
MEC [10]: 2.5 µg/mL
MEC [18]: > 20 µg/mL
MEC [19]: 0.16 µg/mL
MEC [12]: 0.6 µg/mL

COc1ccc2c(c1C(=O)OCOC(=O)C(C)(C)C)OB(O)[C@@H](Sc1nncs1)C2
bioavailability [20]: 100%

CSCC(=O)N[C@H]1Cc2ccc(SCCO)c(C(=O)O)c2OB1O
MEC [2]: 1.25 µg/mL
MEC [9]: 2.5 µg/mL
MEC [10]: 5 µg/mL
MEC [18]: > 20 µg/mL
MEC [19]: 0.04 µg/mL
MEC [12]: 1.25 µg/mL

CSCC(=O)N[C@H]1Cc2ccc(Sc3nncn3C)c(C(=O)O)c2OB1O
MEC [2]: 2.5 µg/mL
MEC [9]: 5 µg/mL
MEC [10]: 5 µg/mL
MEC [18]: > 20 µg/mL
MEC [19]: < 0.3 µg/mL
MEC [12]: 2.5 µg/mL

CSCC(=O)N[C@H]1Cc2ccc(O)c(C(=O)O)c2OB1O
MEC [2]: 2.5 µg/mL
Activity [15]: 2.5 µg/mL
Ratio [16]: 16
MEC [9]: 1.25 µg/mL
MEC [10]: 2.5 µg/mL
MEC [18]: 5 µg/mL
Activity [17]: 40 µg/mL
MEC [19]: < 0.3 µg/mL
MEC [12]: 1.25 µg/mL

O=C(CSC1CNC1)N[C@H]1Cc2ccc(F)c(C(=O)O)c2OB1O
Activity [15]: 5 µg/mL
Ratio [16]: 1
Activity [17]: 5 µg/mL

COc1ccc2c(c1C(=O)O)OB(O)[C@@H](Sc1nncs1)C2
MEC [21]: > 20 µg/mL
MEC [2]: 2.5 µg/mL
MIC [22]: 2.5 µg/mL
MEC [7]: 5 µg/mL
MEC [8]: 0.3 µg/mL
MEC [9]: 1.25 µg/mL
MEC [10]: 10 µg/mL
MEC [11]: 0.3 µg/mL
MEC [18]: 10 µg/mL
bioavailability [20]: 3%
MEC [12]: 2.5 µg/mL
MEC [13]: 0.3 µg/mL
MEC [23]: > 20 µg/mL
MEC [24]: 0.3 µg/mL

COc1ccc2c(c1C(=O)OCOC(=O)OC(C)C)OB(O)[C@@H](Sc1nncs1)C2
bioavailability [20]: 94%

COc1ccc2c(c1C(=O)OCOC(C)=O)OB(O)[C@@H](Sc1nncs1)C2
bioavailability [20]: 52%

CSCC(=O)N[C@H]1Cc2ccc(F)c(C(=O)O)c2OB1O
MEC [21]: > 20 µg/mL
MEC [2]: 1.25 µg/mL
Activity [15]: 5 µg/mL
Ratio [16]: 4
MEC [22]: 1.25 µg/mL
MEC [7]: > 20 µg/mL
MEC [8]: > 20 µg/mL
MEC [9]: 0.6 µg/mL
MEC [10]: 2.5 µg/mL
MEC [18]: 10 µg/mL
Activity [17]: 20 µg/mL
MEC [19]: < 0.3 µg/mL
MEC [12]: < 0.3 µg/mL
MEC [13]: > 20 µg/mL
MEC [23]: > 20 µg/mL
MEC [24]: 0.15 µg/mL

O=C(O)c1c(F)ccc2c1OB(O)[C@H]1C[C@@H]21
MEC [21]: 5 µg/mL
MEC [2]: 1.25 µg/mL
MEC [22]: 1.25 µg/mL
MEC [7]: > 20 µg/mL
MEC [8]: 5 µg/mL
MEC [9]: 0.3 µg/mL
MEC [10]: 2.5 µg/mL
MEC [11]: 1.25 µg/mL
MEC [18]: 5 µg/mL
MEC [12]: 1.25 µg/mL
MEC [13]: > 20 µg/mL
MEC [23]: 10 µg/mL
MEC [24]: 1.25 µg/mL

CSCC(=O)N[C@H]1Cc2ccc(OCC(=O)O)c(C(=O)O)c2OB1O
MEC [2]: 5 µg/mL
MEC [9]: 5 µg/mL
MEC [10]: 5 µg/mL
MEC [18]: > 20 µg/mL
MEC [19]: 0.08 µg/mL
MEC [12]: 2.5 µg/mL
